In PubChem BioAssay AID248 (DTP/NCI, 2004):
Values joined by “and” are separate entries in the source; they are usually repeats but may differ in a detail not shown here. Equal entries are not always repeated. Toxic doses and inconclusive results are not listed. No stated cut-off is given here; in the data, active means T/C of 150% or more; inactive means T/C below 125%.

System: L1210 leukemia ip in BDF1 mice, survival T/C
Assay: NCI In Vivo Anticancer Drug Screen. Data for tumor model L1210 Leukemia (intraperitoneal) in B6D2F1 (BDF1) mice
Conditions: endpoint: mean survival time, higher = longer survival
Procedure, shortened: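 Survival endpoint. Drug-treated group vs vehicle group, expressed as T divided by C. Tumor passaged by transplantation.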

[1] = dose: 100.0 mg/kg/injection, schedule: Q01DX009 (ip), vehicle: saline with Tween-80
[2] = dose: 100.0 mg/kg/injection, schedule: Q04DX003 (ip), vehicle: saline with Tween-80
[3] = dose: 200.0 mg/kg/injection, schedule: Q01DX009 (ip), vehicle: saline with Tween-80
[4] = dose: 200.0 mg/kg/injection, schedule: Q04DX003 (ip), vehicle: saline with Tween-80
[5] = dose: 400.0 mg/kg/injection, schedule: Q01DX009 (ip), vehicle: saline with Tween-80
[6] = dose: 400.0 mg/kg/injection, schedule: Q04DX003 (ip), vehicle: saline with Tween-80
[7] = dose: 400.0 mg/kg/injection, schedule: Q04DX002 (ip), vehicle: saline with Tween-80
[8] = dose: 50.0 mg/kg/injection, schedule: Q01DX009 (ip), vehicle: Klucel (hydroxypropylcellulose) (HPC)
[9] = dose: 100.0 mg/kg/injection, schedule: Q01DX009 (ip), vehicle: Klucel (hydroxypropylcellulose) (HPC)
[10] = dose: 200.0 mg/kg/injection, schedule: Q01DX009 (ip), vehicle: Klucel (hydroxypropylcellulose) (HPC)
[11] = dose: 50.0 mg/kg/injection, schedule: Q04DX003 (ip), vehicle: saline with Tween-80
[12] = dose: 100.0 mg/kg/injection, schedule: Q04DX003 (ip), vehicle: Klucel (hydroxypropylcellulose) (HPC)
[13] = dose: 200.0 mg/kg/injection, schedule: Q04DX003 (ip), vehicle: Klucel (hydroxypropylcellulose) (HPC)
[14] = dose: 400.0 mg/kg/injection, schedule: Q04DX003 (ip), vehicle: Klucel (hydroxypropylcellulose) (HPC)
[15] = dose: 400.0 mg/kg/injection, schedule: Q01DX009 (ip), vehicle: Klucel (hydroxypropylcellulose) (HPC)
[16] = dose: 100.0 mg/kg/injection, schedule: Q01DX001 (ip), vehicle: saline with Tween-80
[17] = dose: 200.0 mg/kg/injection, schedule: Q01DX001 (ip), vehicle: saline with Tween-80
[18] = dose: 50.0 mg/kg/injection, schedule: Q01DX009 (ip), vehicle: saline with Tween-80
[19] = dose: 100.0 mg/kg/injection, schedule: Q01DX001 (ip), vehicle: saline
[20] = dose: 200.0 mg/kg/injection, schedule: Q01DX001 (ip), vehicle: saline
[21] = dose: 400.0 mg/kg/injection, schedule: Q01DX001 (ip), vehicle: saline

Measured: T/C

O=C1CCCCCCCCCCC1Br (centres undefined)
inactive: [1] 110 % of control | [2] 92 % of control | [3] 95 % of control | [4] 87 % of control | [5] 87 % of control | [6] 92 % of control

C=CCNc1nc(C)ncc1C(=O)OCC
inactive: dose: 75.0 mg/kg/injection, schedule: Q04DX003 (ip), vehicle: saline with Tween-80 94 % of control | dose: 150.0 mg/kg/injection, schedule: Q04DX003 (ip), vehicle: saline with Tween-80 92 % of control | dose: 300.0 mg/kg/injection, schedule: Q04DX003 (ip), vehicle: saline with Tween-80 92 % of control

CSc1ccc(NC(=O)OCC2CC3C=CC2C3)cc1 (centres undefined)
inactive: [1] 96 % of control and 92 % of control | dose: 100.0 mg/kg/injection, schedule: Q04DX002 (ip), vehicle: saline with Tween-80 89 % of control | [2] 95 % of control | [3] 94 % of control and 110 % of control | dose: 200.0 mg/kg/injection, schedule: Q04DX002 (ip), vehicle: saline with Tween-80 89 % of control | [4] 93 % of control | [5] 94 % of control and 100 % of control | [7] 111 % of control | [6] 98 % of control

Nc1ccc(SC(Sc2ccc(N)cc2)c2ccccc2)cc1
inactive: dose: 75.0 mg/kg/injection, schedule: Q01DX001 (ip), vehicle: other 105 % of control | dose: 75.0 mg/kg/injection, schedule: Q04DX003 (ip), vehicle: other 101 % of control | dose: 150.0 mg/kg/injection, schedule: Q01DX001 (ip), vehicle: other 107 % of control | dose: 150.0 mg/kg/injection, schedule: Q04DX003 (ip), vehicle: other 89 % of control | dose: 300.0 mg/kg/injection, schedule: Q01DX001 (ip), vehicle: other 100 % of control | dose: 300.0 mg/kg/injection, schedule: Q04DX003 (ip), vehicle: other 92 % of control

CCO/C=N\c1c(C#N)c(CC#N)nn1-c1ccccc1
inactive: [8] 100 % of control | [9] 91 % of control | [10] 100 % of control

Fc1c(F)c(F)c(Oc2nc(-c3ccccc3)nc(-c3ccccc3)n2)c(F)c1F
inactive: dose: 25.6 mg/kg/injection, schedule: Q04DX002 (ip), vehicle: saline with Tween-80 92 % of control | dose: 64.0 mg/kg/injection, schedule: Q04DX002 (ip), vehicle: saline with Tween-80 106 % of control | dose: 160.0 mg/kg/injection, schedule: Q04DX002 (ip), vehicle: saline with Tween-80 100 % of control | [7] 95 % of control

Nc1nc2ccccc2c(=O)[nH]1
inactive: dose: 25.0 mg/kg/injection, schedule: Q04DX003 (ip), vehicle: saline with Tween-80 110 % of control | [11] 96 % of control | [2] 102 % of control and 106 % of control

COC1(c2ccccc2)OC(Cc2ccccc2)=NC1(C)C (centres undefined)
inactive: [12] 94 % of control | [13] 94 % of control | [14] 94 % of control

Cc1cc(C)c(S(=O)(=O)Nc2ccccc2F)c(C)c1
inactive: [9] 98 % of control | [10] 110 % of control | [15] 93 % of control

N#CCCCCN=[N+]=[N-]
inactive: dose: 37.5 mg/kg/injection, schedule: Q04DX003 (ip), vehicle: saline 87 % of control | dose: 75.0 mg/kg/injection, schedule: Q04DX003 (ip), vehicle: saline 104 % of control | dose: 150.0 mg/kg/injection, schedule: Q04DX003 (ip), vehicle: saline 98 % of control

O=c1[nH]nnc2nc(CCCc3ccccc3)[nH]c12
inactive: [16] 98 % of control | [17] 111 % of control | dose: 400.0 mg/kg/injection, schedule: Q01DX001 (ip), vehicle: saline with Tween-80 104 % of control

CCN(CC)CCCC(C)Nc1ccc(O)c2c1C(=O)c1ccccc1C2=O (centres undefined)
inactive: dose: 25.0 mg/kg/injection, schedule: Q01DX009 (ip), vehicle: saline 100 % of control | dose: 50.0 mg/kg/injection, schedule: Q01DX009 (ip), vehicle: saline 93 % of control | dose: 100.0 mg/kg/injection, schedule: Q01DX009 (ip), vehicle: saline 104 % of control | dose: 100.0 mg/kg/injection, schedule: Q04DX002 (ip), vehicle: saline 100 % of control | dose: 200.0 mg/kg/injection, schedule: Q04DX002 (ip), vehicle: saline 102 % of control

CC(=O)Cc1cc(=O)[nH]c(=S)[nH]1
inactive: [18] 95 % of control | [1] 92 % of control | [3] 92 % of control

CCCCCC/C(=N/NC(N)=O)C(OC)OC
inactive: dose: 100.0 mg/kg/injection, schedule: Q01DX001 (ip), vehicle: other 94 % of control | dose: 200.0 mg/kg/injection, schedule: Q01DX001 (ip), vehicle: other 105 % of control | dose: 400.0 mg/kg/injection, schedule: Q01DX001 (ip), vehicle: other 100 % of control

Cc1c(C)c(Br)c(C)c(-c2c(C)c(C)c(C)c(Br)c2C)c1C
inactive: [8] 99 % of control | [9] 97 % of control | [10] 94 % of control | [15] 90 % of control

CCCCNC(=O)NC(C(=O)OCC)C(=O)OCC
inactive: [9] 97 % of control | [12] 100 % of control | [10] 102 % of control | [13] 100 % of control | [15] 96 % of control | [14] 102 % of control

Brc1nnnn1-c1ccccc1
inactive: [9] 99 % of control | [12] 97 % of control | [10] 98 % of control | [13] 108 % of control | [15] 96 % of control | [14] 94 % of control

CC(C)=CCC/C(C)=C/CNC(=O)/C=C/C(=O)O
inactive: dose: 25.0 mg/kg/injection, schedule: Q01DX009 (ip), vehicle: saline with Tween-80 98 % of control | [18] 93 % of control | [11] 91 % of control | [1] 100 % of control and 90 % of control | [2] 94 % of control and 98 % of control | [3] 105 % of control | [4] 86 % of control | [5] 94 % of control | [6] 97 % of control

CCN(CC#CCOc1ccc(Cl)cc1)c1ccccc1
inactive: dose: 25.0 mg/kg/injection, schedule: Q04DX002 (ip), vehicle: Klucel (hydroxypropylcellulose) (HPC) 99 % of control | dose: 50.0 mg/kg/injection, schedule: Q04DX002 (ip), vehicle: Klucel (hydroxypropylcellulose) (HPC) 93 % of control | dose: 100.0 mg/kg/injection, schedule: Q04DX002 (ip), vehicle: Klucel (hydroxypropylcellulose) (HPC) 93 % of control

COP1(=O)OC(C)C(C)O1 (centres undefined)
inactive: [19] 98 % of control | [20] 102 % of control | [21] 93 % of control

COc1c(N)c(C)nc(Cl)c1C#N
inactive: [19] 97 % of control | [20] 103 % of control | [21] 109 % of control

CCOC(=O)C1C(=O)C(C(=O)Nc2ccccc2)C(=O)C(C(=O)OCC)C1c1ccc(OC(C)=O)cc1 (centres undefined)
inactive: dose: 50.0 mg/kg/injection, schedule: Q01DX001 (ip), vehicle: saline with Tween-80 94 % of control | [16] 100 % of control | [17] 96 % of control
